# Source: patent publication US7109177B2, “Methods and compositions for the manufacture of C-3′ and C-4′ anthracycline antibiotics” (Houston Pharmaceuticals, Inc., priority 1999, dated 2006)
# Values joined by “and” are separate entries in the source; they are usually repeats but may differ in a detail not shown here. Equal entries are not always repeated. Where two headings read alike, the source gives them in different places.
# Tests used:
# CEM leukemic cells = test: Quantitative apoptotic DNA fragmentation assay; format: cell-based; settings: 24 h incubation
# Text: Results are from two independent studies carried out in duplicate.
# human carcinoma KB cells = test: MTT cytotoxicity assay, sensitive KB cells; format: cell-based
# Protocol: (§1) In vitro drug cytotoxicities against human breast carcinoma wild-type MCF-7 and MRP-resistant MCF-7NP-16 cells were assessed by using the […], as previously reported (Green et al., 1984). […] Drugs were then added to the wells to achieve a final drug concentration ranging from 0.1 to 50 μg/mL. Four wells were used for each concentration. […] After a 4-hour incubation, 100 μL of buffer containing 50% N,N-dimethylformamide and 20% SDS was added to solubilize the MTT formazan. […] Results and Discussion
# (§2) Thus, for the in vitro evaluation of substituted anthracyclines having C-3′ alkylated anthracyclines modified at benzyl ring and having 4′-substituted-benzylated anthracyclines, the inventors selected two sensitive cell lines: a human carcinoma KB and MCF-7 human breast cancer, the multi-drug-resistant (MDR) counterpart of KB (KBV1 carcinoma), which overexpresses MDR1 gene that encodes a membrane transport glycoprotein (P-gp), the MCF-7NVP-16 cell line that overexpresses the multi-drug-resistant associated protein (MRP), and the MCF-7/dox cell line which overexpresses MDR1 gene.
# [1] = tested on: KB-V1 (KBV1) carcinoma cells; test: MTT cytotoxicity assay, multi-drug-resistant KB-V1 cells (MDR1/P-gp); format: cell-based, human; design: ID50 KBV1: unit not given here; settings: for Effectiveness as measured by resistance index (RI), in words: in vitro, compared with daunorubicin or doxorubicin
# Protocol: as §1, §2
# [2] = tested on: human breast carcinoma MCF-7 cells; design: unit not given beside the values
# MCF-7/DOX cells = test: MTT cytotoxicity assay, MCF-7/DOX cells (MDR1)
# breast tumors = test: In vivo prevention of tumor development in a mouse cancer model; settings: compared with buffer-treated control mice that develop tumors
# Protocol: In an initial round of in vivo trials, a mouse model of human cancer with the histologic features and metastatic potential resembling tumors seen in humans (Katsumata et al., 1995) is used. The animals are treated with analogs of anthracyclines having C-3′-substitutions as described or anthracycline analogs with C-4′-substitutions synthesized in the present invention to determine the suppression of tumor development.
# Two groups of mice of a suitable cancer model are treated with doses of substituted anthracyclines with substitutions at the C-3′-sugar or having C-4′-substituted sugar moietied. Several combinations and concentrations of the substituted anthracyclines are tested. Control mice are treated with buffer only.
# The effect of substituted anthracyclines on the development of breast tumors is compared with the control group by examination of tumor size and histopathologic examination (breast tissue is cut and stained with hematoxylin and eosin) of breast tissue.
# [3] = tested on: sensitive and MDR tumor cell lines; test: In vitro evaluation of cytotoxicity compared with DOX (cell line not given); format: cell-based, human; settings: for Cytotoxicity compared to DOX, in words: in vitro evaluation; for Direct comparison of cytotoxicity with DOX, in words: effect of C-3′ and C-4′ substitutions on potency
# Protocol: as §1, §2
# [4] = Table 2, MTT assay, mean of at least 4 experiments
# Protocol for MCF-7/VP-16 cells: Compounds synthesized using the methods described above were tested using a standard MTT. assay (Green et al., 1984) against human carcinoma sensitive (KB) and multi drug-resistant (KBV1) cells and MCF-7 and MCF-7/VP-16 resistant cells characterized as having the MRP (multi-drug resistant associated protein) phenotype.
# In vitro drug cytotoxicities against human breast carcinoma wild-type MCF-7 and MRP-resistant MCF-7NP-16 cells were assessed by using the MT reduction assay, as previously reported (Green et al., 1984). […] Drugs were then added to the wells to achieve a final drug concentration ranging from 0.1 to 50 μg/mL. Four wells were used for each concentration. […] After a 4-hour incubation, 100 μL of buffer containing 50% N,N-dimethylformamide and 20% SDS was added to solubilize the MTT formazan.
smiles,measurement,setting,value
"COc1cccc2c1C(=O)c1c(O)c3c(c(O)c1C2=O)C[C@@](O)(C(=O)CO)C[C@@H]3O[C@H]1C[C@H](N)[C@H](O)[C@H](C)O1 [DOX, doxorubicin, reference compound]","Fragmented DNA, % Total DNA",CEM leukemic cells; 0.1 μM,−0.2%
same,"Fragmented DNA, % Total DNA",CEM leukemic cells; 0.5 μM,27.1%
same,"Fragmented DNA, % Total DNA",CEM leukemic cells; 1 μM,28.7%
same,"Fragmented DNA, % Total DNA",CEM leukemic cells; 2 μM,38.3%
same,ID50 KB,human carcinoma KB cells; [4],0.50 ± 0.0 µg/mL and 0.43 ± 0.19 µg/mL
same,ID50 KB,"human carcinoma KB cells; Table 3, EXP. 1",2.35
same,ID50 KB-V1,[1]; [4],>100 µg/mL and 109 ± 28 µg/mL
same,RI (resistance index) KB-V1 vs KB,"[1]; Table 2, higher RI = less effective against MDR",>200
same,ID50 KBV1,"[1]; Table 3, EXP. 1",>100
same,RI (KBV1 vs KB),"[1]; Table 3, EXP. 1",>42.6
same,ID50 KBV1,"[1]; Table 3, under EXP. 2",174 ± 32 and >100
same,ID50 MCF-7,"[2]; Table 3, EXP. 1",0.3
same,ID50 MCF-7,"[2]; Table 3, under EXP. 2",0.50 ± 0.26 and 0.53 ± 0.25
same,ID50 MCF-7/DOX,"MCF-7/DOX cells; Table 3, EXP. 1",>100
same,RI (MCF-7/DOX vs MCF-7),"MCF-7/DOX cells; Table 3, EXP. 1",>333
same,ID50 MCF-7/DOX,"MCF-7/DOX cells; Table 3, under EXP. 2",>100
same,RI (MCF-7/DOX vs MCF-7),"MCF-7/DOX cells; Table 3, under EXP. 2",>189
same,ID50 MCF-7/VP-16,"MCF-7/VP-16 cells; Table 3, EXP. 1",3.0
same,RI (MCF-7/VP-16 vs MCF-7),"MCF-7/VP-16 cells; Table 3, EXP. 1",10
same,ID50 MCF-7/VP-16,"MCF-7/VP-16 cells; Table 3, under EXP. 2",8.3 ± 0.5 and 6.87 ± 0.58
same,RI (MCF-7/VP-16 vs MCF-7),"MCF-7/VP-16 cells; Table 3, under EXP. 2",16.6 and 13
"CC(=O)O[C@H]1[C@@H](N=[N+]=[N-])C[C@@H](O[Si](C)(C)C(C)(C)C)O[C@H]1C [WP417, 4-O-acetyl-3-Azido-1-O-t-butyldimethylsilyl-2,3,6-trideoxy-β-L-lyxo hexapyranose]","Tumor development in treated mice, predicted",breast tumors,resistant to tumor development
"C[C@@H]1O[C@H](O[Si](C)(C)C(C)(C)C)C[C@H](N=[N+]=[N-])[C@@H]1O [WP418, t-Butyldimethylsilyl 3-azido- -2,3,6-trideoxy-β-L-lyxo hexapyranose]","Tumor development in treated mice, predicted",breast tumors,resistant to tumor development
"CCCCC(=O)OCC(=O)[C@]1(O)Cc2c(O)c3c(c(O)c2[C@@H](O[C@H]2C[C@H](O)[C@H](OCc4ccccc4)[C@H](C)O2)C1)C(=O)c1c(OC)cccc1C3=O [WP571, 3-deamino-4-O-benzyl-3-O-hydroxy-14-O-pentanoyl-doxorubicin]","Cytotoxicity compared to DOX, in words",[3],unusually potent cytotoxic agents
same,"Tumor development in treated mice, predicted",breast tumors,resistant to tumor development
"COc1cccc2c1C(=O)c1c(O)c3c(c(O)c1C2=O)C[C@@](O)(C(=O)CO)C[C@@H]3O[C@H]1C[C@H](O)[C@H](OCc2ccccc2)[C@H](C)O1 [WP727, 4-O-benzyl-3-deamino-3-hydroxy-doxorubicin]","Cytotoxicity compared to DOX, in words",[3],unusually potent cytotoxic agents
same,"Tumor development in treated mice, predicted",breast tumors,resistant to tumor development
"COc1cccc2c1C(=O)c1c(O)c3c(c(O)c1C2=O)C[C@@](O)(C(=O)CO)C[C@@H]3O[C@H]1C[C@H](N)[C@H](OCc2ccccc2)[C@H](C)O1 [WP744, 4′-O-Benzyl-doxorubicin]","Fragmented DNA, % Total DNA",CEM leukemic cells; 0.05 μM,17.8%
same,"Fragmented DNA, % Total DNA",CEM leukemic cells; 0.1 μM,31.3%
same,"Fragmented DNA, % Total DNA",CEM leukemic cells; 0.5 μM,46.7%
same,ID50 KB,"human carcinoma KB cells; Table 3, EXP. 1",1.44 ± 0.45
same,"Cytotoxicity compared to DOX, in words",[3],unusually potent cytotoxic agents
same,ID50 KBV1,"[1]; Table 3, EXP. 1",2.76 ± 0.52
same,RI (KBV1 vs KB),"[1]; Table 3, EXP. 1",1.84
same,ID50 KBV1,"[1]; Table 3, under EXP. 2",2.1 ± 0.5 and 4.07 ± 1.85
same,"Effectiveness as measured by resistance index (RI), in words",[1],significantly more effective
same,ID50 MCF-7,"[2]; Table 3, EXP. 1",1.63 ± 0.5
same,"Tumor development in treated mice, predicted",breast tumors,resistant to tumor development
same,ID50 MCF-7/DOX,"MCF-7/DOX cells; Table 3, EXP. 1",5.25
same,RI (MCF-7/DOX vs MCF-7),"MCF-7/DOX cells; Table 3, EXP. 1",3.22
same,ID50 MCF-7/DOX,"MCF-7/DOX cells; Table 3, under EXP. 2",0.89 ± 0.10
same,RI (MCF-7/DOX vs MCF-7),"MCF-7/DOX cells; Table 3, under EXP. 2",2.41
same,ID50 MCF-7/VP-16,"MCF-7/VP-16 cells; Table 3, EXP. 1",2.3 ± 1.9
same,RI (MCF-7/VP-16 vs MCF-7),"MCF-7/VP-16 cells; Table 3, EXP. 1",1.41
same,RI (MCF-7/VP-16 vs MCF-7),"MCF-7/VP-16 cells; Table 3, under EXP. 2",1.4 and 1.6
"COc1cccc2c1C(=O)c1c(O)c3c(c(O)c1C2=O)C[C@@](O)(C(=O)CO)C[C@@H]3O[C@H]1C[C@H](N)[C@@H](OCc2ccccc2)[C@H](C)O1 [WP750, 4′-O-Benzyl-4′epi-doxorubicin]",ID50 KB,"human carcinoma KB cells; Table 3, under EXP. 2",6.4
same,"Direct comparison of cytotoxicity with DOX, in words",[3],drastically increase the potency
same,"Cytotoxicity compared to DOX, in words",[3],unusually potent cytotoxic agents
same,ID50 KBV1,"[1]; Table 3, under EXP. 2",56 ± 29
same,RI (KBV1 vs KB),"[1]; Table 3, under EXP. 2",8.8
same,"Effectiveness as measured by resistance index (RI), in words",[1],significantly more effective
same,"Tumor development in treated mice, predicted",breast tumors,resistant to tumor development
"CC(=O)[C@]1(O)Cc2c(O)c3c(c(O)c2[C@@H](O[C@H]2C[C@H](N)[C@H](OCc4ccccc4)[C@H](C)O2)C1)C(=O)c1ccccc1C3=O [WP783, 4′-O-Benzyl-4-demethoxydaunorubicin]",ID50 KB,"human carcinoma KB cells; Table 3, under EXP. 2",0.43 ± 0.21
same,"Direct comparison of cytotoxicity with DOX, in words",[3],drastically increase the potency
same,"Cytotoxicity compared to DOX, in words",[3],unusually potent cytotoxic agents
same,ID50 KBV1,"[1]; Table 3, under EXP. 2",1.1 ± 0.8
same,RI (KBV1 vs KB),"[1]; Table 3, under EXP. 2",2.6
same,"Effectiveness as measured by resistance index (RI), in words",[1],significantly more effective
same,"Tumor development in treated mice, predicted",breast tumors,resistant to tumor development
"CC(=O)[C@]1(O)Cc2c(O)c3c(c(O)c2[C@@H](O[C@H]2C[C@H](N)[C@H](OCc4ccc(F)cc4)[C@H](C)O2)C1)C(=O)c1ccccc1C3=O [WP797, 4′-(4-Fluoro-benzyloxy)-4-demethoxydaunorubicine]","Cytotoxicity compared to DOX, in words",[3],unusually potent cytotoxic agents
same,"Tumor development in treated mice, predicted",breast tumors,resistant to tumor development
"COc1cccc2c1C(=O)c1c(O)c3c(c(O)c1C2=O)C[C@@](O)(C(=O)CO)C[C@@H]3O[C@H]1C[C@H](N)[C@H](OCc2c(F)cccc2F)[C@H](C)O1 [WP799, 4′-(2,6-difluoro-benzyloxy)-doxorubicine]","Cytotoxicity compared to DOX, in words",[3],unusually potent cytotoxic agents
same,"Tumor development in treated mice, predicted",breast tumors,resistant to tumor development
